Experimental data published in ChEMBL document CHEMBL1201862, “PubChem BioAssay data set” (2004).
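Interpolation was linear, between the two tested concentrations surrounding the appropriate level; five concentrations were tested over 48 hours in 96-well plates. GI50 marks 50% less growth.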 Activity calls are given as the source filed them. Cut-off read from the data, not from the text of the source: active = GI50 up to about 1.1 µM and inactive = higher.

Assays:
Assay in all cases: growth of human tumour cells (NCI), 48 h
[1] = test system: EKVX
[2] = test system: HCT-15
[3] = test system: HOP-18
[4] = test system: HOP-62
[5] = test system: Malme-3M
[6] = test system: NCI-H226
[7] = test system: NCI-H522
[8] = test system: OVCAR-8
[9] = test system: RPMI-8226
[10] = test system: RXF 393
[11] = test system: SF-295
[12] = test system: SK-MEL-5
[13] = test system: SNB-19
[14] = test system: SNB-75
[15] = test system: U-251
[16] = test system: Hs-578T
[17] = test system: K562
[18] = test system: MOLT-4
[19] = test system: SR
[20] = test system: T47D

| SMILES | GI50 [1] | GI50 [2] [µM] | GI50 [3] | GI50 [4] | GI50 [5] | GI50 [6] | GI50 [7] | GI50 [8] | GI50 [9] | GI50 [10] | GI50 [11] | GI50 [12] | GI50 [13] | GI50 [14] | GI50 [15] | GI50 [16] | GI50 [17] | GI50 [18] | GI50 [19] | GI50 [20] |
| --- | --- | --- | --- | --- | --- | --- | --- | --- | --- | --- | --- | --- | --- | --- | --- | --- | --- | --- | --- | --- |
| CCCCCCCCCCCCCc1nnn[nH]1 | 23.4 µM (inactive) | 18.3 | 15 µM (inactive) | 18.2 µM (inactive) | 18.1 µM (inactive) | 22.2 µM (inactive) | 21.8 µM (inactive) | 29.9 µM (inactive) | 22.4 µM (inactive) | 27.5 µM (inactive) | 19.2 µM (inactive) | 17.7 µM (inactive) | 18.7 µM (inactive) | 18.3 µM (inactive) | 18.2 µM (inactive) | – | – | – | – | – |
| CN(C)c1ccc(C2CC(C)(O)Oc3cc4c(cc32)OCO4)cc1 (stereo not drawn) | 48.9 µM (inactive) | 29.9 | – | 62.4 µM (inactive) | 67 µM (inactive) | 3.86 µM (inactive) | 19.1 µM (inactive) | 29.5 µM (inactive) | 19.7 µM (inactive) | 32.7 µM (inactive) | 29.1 µM (inactive) | 30.6 µM (inactive) | 98.9 µM (inactive) | 25.3 µM (inactive) | 43.8 µM (inactive) | 61 µM (inactive) | 48 µM (inactive) | > 100 µM (inactive) | 9.33 µM (inactive) | 48.6 µM (inactive) |
| C[C@]12Cc3conc3C(O)=C1CC[C@@H]1C2CC[C@@]2(C)C1CC[C@@H]2O (stereo partly drawn) | 17.5 µM (inactive) | 5.65 | 41 µM (inactive) | 50.4 µM (inactive) | 9.4 µM (inactive) | 18 µM (inactive) | 2.95 µM (inactive) | 25.8 µM (inactive) | 1.93 µM (inactive) | 17.4 µM (inactive) | 18 µM (inactive) | 10.5 µM (inactive) | 31.4 µM (inactive) | 9.77 µM (inactive) | 20 µM (inactive) | – | 3.66 µM (inactive) | 6.68 µM (inactive) | – | – |
| Cc1cc(O)c(C(C)C)cc1C1(c2cc(C(C)C)c(O)cc2C)OC(=O)c2ccccc21 | 2.99 µM (inactive) | 2 | – | 2.76 µM (inactive) | 2.21 µM (inactive) | 2.48 µM (inactive) | 1.84 µM (inactive) | 2.7 µM (inactive) | 1.21 µM (inactive) | 1.47 µM (inactive) | 1.78 µM (inactive) | 1.6 µM (inactive) | 3.15 µM (inactive) | 2.58 µM (inactive) | 1.97 µM (inactive) | 2.14 µM (inactive) | 1.19 µM (inactive) | 1.34 µM (inactive) | 1.36 µM (inactive) | 1.85 µM (inactive) |
| NC(=O)NC(=O)c1cccc(NC(=O)CF)c1 | > 100 µM (inactive) | > 100 | – | > 100 µM (inactive) | > 100 µM (inactive) | 73.5 µM (inactive) | > 100 µM (inactive) | > 100 µM (inactive) | > 100 µM (inactive) | > 100 µM (inactive) | > 100 µM (inactive) | > 100 µM (inactive) | > 100 µM (inactive) | > 100 µM (inactive) | > 100 µM (inactive) | > 100 µM (inactive) | > 100 µM (inactive) | > 100 µM (inactive) | > 100 µM (inactive) | > 100 µM (inactive) |
| Clc1ccc2c(NCCCCCCNc3ccnc4cc(Cl)ccc34)ccnc2c1 | 6.97 µM (inactive) | 2.88 | – | 4.72 µM (inactive) | 12.8 µM (inactive) | 10.4 µM (inactive) | 1.69 µM (inactive) | 2.05 µM (inactive) | 2.13 µM (inactive) | 3.01 µM (inactive) | 2.11 µM (inactive) | 3.34 µM (inactive) | 3.8 µM (inactive) | 2.73 µM (inactive) | 2.45 µM (inactive) | 3.27 µM (inactive) | 1.72 µM (inactive) | 2.45 µM (inactive) | 1.59 µM (inactive) | 2.08 µM (inactive) |
